Assay results published in patent US9102669B2, “Substituted piperidinyl-pyridazinyl derivatives useful as SCD 1 inhibitors” (Janssen Pharmaceutica NV, priority 2011, dated 2015).
Where “and” joins values, the source holds several entries; their conditions need not be identical. Equal values may be shown once.

Experiments:
SCD1 [1] = molecular target: SCD1 (Rattus norvegicus (Rat), UniProt P07308); assay: SCD1 enzymatic assay in rat liver microsomes (RLM); type: biochemical; conditions: rat liver microsomes; for inhibition at 1 µM / % Inh.@ 1 μM: 1 μM test compound; for inhibition at 1 µM: read-out: % Inh.@ 1 μM
Procedure: Step 1: Preparation of Rat Liver Microsome (RLM):
Sprague Dawley rats from Charles River (200-225 g) underwent 2-cycle of fast-re-feeding (24-hour fast followed by 24-hour feeding with fat-free high carbohydrate diet, Reseach Diet, D00042802). The livers were removed and homogenized 1:4 (w/v) with pre-chilled, homogenizing buffer (10 mM Tris-HCl, 0.25 M sucrose, 1 mM EDTA, pH 7.4, supplemented with protease inhibitor cocktail). The homogenate was spun at 12,000×g for 15 min at 4° C. The supernatant was then re-centrifuged at 100,000×g for 60 min at 4° C. The pellet was re-suspended in 2 ml pre-chilled […] potassium phosphate buffer, pH 7.2, 10 mM EDTA at a concentration of 20 mg/ml. The resulting rat liver microsome (RLM) preparation was stored at −80° C.
Step 2: SCD1 Enzymatic Assay in RLM:
The SCD1 enzymatic assay was done in a volume of 50 μL using 10 μg of RLM (prepared as described above) in a 96-well polypropylene plate (enzyme reaction buffer contains 0.1 M K-Phosphate Buffer, 10 mM ATP, 6 mM MgCl2. 1 mM CoA, 1 mM β-NADH, 1.6 mM L-glutathione, 20 μM Stearoyl-CoA). Stearoyl-[9,10-^3H]-CoA (ARC-0390, 1 mCi/mL, 60 Ci/mmol,) was added at a final concentration of 2 μCi/mL. Test compound was then added to the reaction mixture at the selected concentration. After incubation at room temperature for 2 hours, 5 μL 1 N HCl was added to stop the reaction, followed by addition of 25 μL of 10% charcoal. The reaction mixture was then transferred to 96-well Multiscreen plate (Millipore, Cat#MSFCN6B50). […] The measured cpm values were fitted with Sigmoidal dose-response curve fit with Graphpad Prism.

SCD1 [2] = molecular target: SCD1 (Homo sapiens (Human), UniProt O00767); assay: SCD1 13C-palmitic acid assay in A431 cells; type: cell-based; conditions: read-out: A431 cells 13C-PA IC50
Procedure: Human epithelial carcinoma A431 cells were seeded at 100,000 cells/well in complete growth medium (DMEM, Cellgro#10-013-CM, 4.5 g/L glucose, 10% FBS) in the presence of 0.05 mg/mL human insulin (Hannas Pharmaceutical Supply Co Inc, Humanlin 100 U/ml, 4 mg/ml) in 96-well tissue culture plate. 24 hr later, the cells were washed extensively with Assay Buffer (DMEM, Cellgro#10-013-CM, 4.5 g/L glucose, supplemented with 0.05 mg/mL Human Insulin and 0.1% Fatty Acid Free BSA). […] The cells were then returned to the tissue culture incubator (37° C. and 5% CO2) for 4 hrs. At the end of incubation, the cells were washed three times with 200 μL/well Hanks buffer (HBSS) and then stored at −20° C. until extraction.
For fatty acid extraction, after thawing out the plates, 40 μL of 1N KOH (containing 5 μM of internal standard 7,7,8,8-D4 palmitate) was added to each well and cell plates were incubated at 37° C. for 30 minutes. […] Acetonitrile (100 μL) was then added to extract fatty acids, followed by centrifugation at 3000 rpm for 10 minutes. 75 μL of extract was then transferred to a new glass vial in a 96-well cluster plate. 5 μL was injected for LC/MS analysis for detection of ^13C-palmitic acid and ^13C-palmitoleic acid. Formation of product ^13C-palmitoleic acid was determined as an index of SCD1 activity.
LC/MS analysis was performed as following. An Agilent 1100 Liquid Chromatographic System (Palo Alto, Calif.) consisting of a binary pump, a degasser and an autosampler was used. Separation of free fatty acids was performed on a Zorbax SB-C8 column (2.1×50 mm, particle size=3.5 μm). An isocratic elution was carried out with 10 mM triethylamine acetate in water: acetonitrile (3:7) at a flow rate of 0.3 mL/min. The column temperature was set at 30° C. and the sample injection volume was 5 μL. The LC run cycle was 4 min. A Micromass triple-quadrupole Quattro Micro mass […] (Waters, Beverly, Mass.) was interfaced with the LC system through a Z-spray electrospray ion source and was operated in the negative ion mode. Nitrogen was used as nebulizing gas, desolvation gas and cone curtain gas and argon was chosen as collision gas. The triple quadrupole MS source parameters were set as follows: capillary voltage, 3200V; cone voltage, 25V; exctractor 2V; source temperature, 120° C.; desolvation temperature, 300° C.; cone gas flow, 50 L/h; and desolvation gas flow, 700 L/h. […] MassLynx software version 4.0 was used for system control and data processing. The signal of U-^13C-palmitoleic acid was normalized to an internal standard.

Chain of SCD1 (Homo sapiens (Human), UniProt O00767) (O00767 whole entry): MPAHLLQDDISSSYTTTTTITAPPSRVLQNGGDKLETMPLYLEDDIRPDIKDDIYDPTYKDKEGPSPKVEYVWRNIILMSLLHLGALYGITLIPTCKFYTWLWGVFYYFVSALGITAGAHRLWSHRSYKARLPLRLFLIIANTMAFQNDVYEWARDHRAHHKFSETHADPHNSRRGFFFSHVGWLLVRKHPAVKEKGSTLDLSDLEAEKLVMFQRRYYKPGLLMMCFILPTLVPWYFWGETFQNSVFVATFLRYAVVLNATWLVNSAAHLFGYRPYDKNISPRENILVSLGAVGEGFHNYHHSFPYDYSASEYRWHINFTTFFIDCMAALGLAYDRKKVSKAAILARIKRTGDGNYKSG
Chain of SCD1 (Rattus norvegicus (Rat), UniProt P07308) (P07308 whole entry): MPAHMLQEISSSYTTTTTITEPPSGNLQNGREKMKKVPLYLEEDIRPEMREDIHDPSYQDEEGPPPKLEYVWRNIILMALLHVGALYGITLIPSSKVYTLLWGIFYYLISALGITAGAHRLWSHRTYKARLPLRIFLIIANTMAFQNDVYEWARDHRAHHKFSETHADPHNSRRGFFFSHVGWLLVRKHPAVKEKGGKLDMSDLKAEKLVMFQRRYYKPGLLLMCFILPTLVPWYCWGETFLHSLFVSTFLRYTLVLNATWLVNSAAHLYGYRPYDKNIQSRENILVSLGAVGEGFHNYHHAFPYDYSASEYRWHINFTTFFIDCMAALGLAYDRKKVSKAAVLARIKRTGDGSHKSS

SMILES	inhibition at 1 µM (SCD1 [1]) [%]	IC50 (SCD1 [1])	IC50 (SCD1 [2])	% Inh.@ 1 μM (SCD1 [1])
CCCn1cc(-c2ccc(N3CCC(N4CCc5ccc(F)cc54)CC3)nn2)cn1 [Compound #79, 6-fluoro-1-(1-(6-(1-propyl-1H-pyrazol-4-yl)pyridazin-3-yl)piperidin-4-yl)indoline]	97	22 nM	72 nM	–
CCn1cc(-c2ccc(N3CCC(c4noc5ccc(F)cc45)CC3)nn2)cn1 [compound 13, 3-(1-(6-(1-ethyl-1H-pyrazol-4-yl)pyridazin-3-yl)piperidin-4-yl)-5-fiuorobenzo[d]isoxazole]	98	70 nM	985 nM	–
Cc1nnc(-c2ccc(N3CCC(c4noc5ccc(F)cc45)CC3)nn2)o1 [compound 18, 5-fluoro-3-(1-(6-(5-methyl-1,3,4-oxadiazol-2-yl)pyridazin-3-yl)piperidin-4-yl)benzo[d]isoxazole]	–	315 nM	248 nM	–
OCc1nnc(-c2ccc(N3CCC(c4noc5ccc(F)cc45)CC3)nn2)o1 [compound 20, (5-(6-(4-(5-fluorobenzo[d]isoxazol-3-yl)piperidin-1-yl)pyridazin-3-yl)-1,3,4-oxadiazol-2-yl)methanol]	96	16 nM and 14 nM	11 nM	96, 96%
Cc1csc(-c2ccc(N3CCC(c4noc5ccc(F)cc45)CC3)nn2)n1 [compound 23, 5-fluoro-3-(1-(6-(4-methylthiazol-2-yl)pyridazin-3-yl)piperidin-4-yl)benzo[d]isoxazoie]	100	21 nM	3 nM	–
Cc1ccc(-c2ccc(N3CCC(c4noc5ccc(F)cc45)CC3)nn2)cn1 [compound 24, 5-fluoro-3-(1-(6-(6-methylpyridin-3-yl)pyridazin-3-yl)piperidin-4-yl)benzo[d]isoxazote]	98	11 nM and 4 nM	9 nM and 6 nM	94%
Cc1cc(-c2ccc(N3CCC(c4noc5ccc(F)cc45)CC3)nn2)ccn1 [compound 25, 5-fluoro-3-(1-(6-(2-methylpyridin-4-yl)pyridazin-3-yl)piperidin-4-yl)benzo[d]isoxazole]	62	171 nM	17 nM	–
Fc1ccc2onc(C3CCN(c4ccc(-c5cn[nH]c5)nn4)CC3)c2c1 [compound 26, 3-(1-(6-(1H-pyrazol-4-yl)pyridazin-3-yl)piperidin-4-yl)-5-fluorobenzo[d]isoxazole]	86	111 nM	112 nM	–
Cc1csc(-c2ccc(N3CCC(c4noc5ccc(F)cc45)CC3)nn2)c1 [compound 27, 5-fluoro-3-(1-(6-(4-methylthiophen-2-yl)pyridazin-3-yl)piperidin-4-yl)benzo[d]isoxazole]	75	114 nM and 122 nM	4 nM and 3 nM	55%
Cc1cnc(-c2ccc(N3CCC(c4noc5ccc(F)cc45)CC3)nn2)s1 [compound 28, 5-fluoro-3-(1-(6-(5-methylthiazol-2-yl)pyridazin-3-yl)piperidin-4-yl)benzo[d]isoxazole]	94	9 nM	9 nM and 16 nM	–
COc1ncc(-c2ccc(N3CCC(c4noc5ccc(F)cc45)CC3)nn2)cn1 [compound 34, 5-fluoro-3-(1-(6-(2-methoxypyrimidin-5-yl)pyridazin-3-yl)piperidin-4-yl)benzo[d]isoxazole]	75	95 nM	17 nM	–
OCc1ccc(-c2ccc(N3CCC(c4noc5ccc(F)cc45)CC3)nn2)cn1 [compound 35, (5-(6-(4-(5-fluorobenzo[d]isoxazol-3-yl)piperidin-1-yl)pyridazin-3-yl)pyridin-2-yl)methanol]	99	8 nM	2 nM	–
COc1ncc(-c2ccc(N3CCC(N4CCc5ccc(F)cc54)CC3)nn2)cn1 [compound 38, 6-fluoro-1-(1-(6-(2-methoxypyrimidin-5-yl)pyridazin-3-yl)piperidin-4-yl)indoline]	97	11 nM	34 nM	–
Cn1cc(-c2ccc(N3CCC(n4ncc5ccccc54)CC3)nn2)cn1 [compound 40, 1-(1-(6-(1-methyl-1H-pyrazol-4-yl)pyridazin-3-yl)piperidin-4-yl)-1H-indazole]	92	92 nM	45 nM	–
CC(=O)Nc1ccc(-c2ccc(N3CCC(N4CCc5ccc(F)cc54)CC3)nn2)cn1 [compound 45, N-(5-(6-(4-(6-fluoroindolin-1-yl)piperidin-1-yl)pyridazin-3-yl)pyridin-2-yl)acetamide]	98	15 nM	6 nM	–
CCOC(=O)Cn1cc(-c2ccc(N3CCC(N4CCc5ccc(F)cc54)CC3)nn2)cn1 [compound 50, ethyl 2-(4-(6-(4-(6-fluoroindolin-1-yl)piperidin-1-yl)pyridazin-3-yl)-1H-pyrazol-1-yl)acetate]	93	31 nM	44 nM	–
Cn1cc(-c2ccc(N3CCC(n4ncc5c(Cl)cccc54)CC3)nn2)cn1 [compound 61, 4-chloro-1-(1-(6-(1-methyl-1H-pyrazol-4-yl)pyridazin-3-yl)piperidin-4-yl)-1H-indazole]	101	15 nM	17 nM	–
NC(=O)Cn1cc(-c2ccc(N3CCC(N4CCc5ccc(F)cc54)CC3)nn2)cn1 [compound 69, 2-(4-(6-(4-(6-fluoroindolin-1-yl)piperidin-1-yl)pyridazin-3-yl)-1H-pyrazol-1-yl)acetamide]	68	387 nM	559 nM	–
Cn1cc(-c2ccc(N3CCC(n4ncc5c(F)cccc54)CC3)nn2)cn1 [compound 70, 4-fluoro-1-(1-(6-(1-methyl-1H-pyrazol-4-yl)pyridazin-3-yl)piperidin-4-yl)-1H-indazole]	94	68 nM	82 nM	–
Fc1ccc2c(c1)N(C1CCN(c3ccc(-c4cnn(CCN5CCOCC5)c4)nn3)CC1)CC2 [compound 71, 4-(2-(4-(6-(4-(6-fluoroindolin-1-yl)piperidin-1-yl)pyridazin-3-yl)-1H-pyrazol-1-yl)ethyl)morpholine]	71	275 nM	> 1000 nM and 160 nM	–
Cn1cc(-c2ccc(N3CCC(n4ncc5cc(F)ccc54)CC3)nn2)cn1 [compound 73, 5-fluoro-1-(1-(6-(1-methyl-1H-pyrazol-4-yl)pyridazin-3-yl)piperidin-4-yl)-1H-indazole]	86	145 nM	262 nM	–
Cn1cc(-c2ccc(N3CCC(n4ncc5ccc(Cl)cc54)CC3)nn2)cn1 [compound 74, 6-chloro-1-(1-(6-(1-methyl-1H-pyrazol-4-yl)pyridazin-3-yl)piperidin-4-yl)-1H-indazole]	96	16 nM	22 nM	–
